In patent US11433042B2, “Methods and compositions for treating metabolic disorders” (Joslin Diabetes Center, Inc., priority 2017, dated 2022):
“Also recorded” adds a separate entry of the source.

Columns and labels:
CD36 = test: Membrane fractionation and immunoblot, CD36; format: cell-based; conditions: differentiated WT-1 brown adipocytes, 1 μM for 15 minutes
Method: (§1) WT-1 brown preadipocytes were differentiated according to a standard adipogenic differentiation protocol for 9 days before cells were serum starved for 1 hour. Cells were treated with 1 μM 12,13-diHOME or methyl acetate vehicle in 0.1% BSA w/v in PBS for 15 minutes before cells were scraped from tissue culture plates into homogenization buffer and membranes were separated according to previously published protocols (Nishiumi, S. & Ashida, H., Bioscience, biotechnology, and biochemistry. 71, 2343-2346 (2007)). Protein lysates were stored at −20° C. until further use. Protein concentrations were determined by using the Pierce BCA kit (Life Technologies) according to instructions. For immunoblots, lysates were diluted into Laemmli buffer and boiled, then loaded onto 10% Tris gels for SDS-PAGE. After complete separation of the proteins, these were transferred on a PVDF membrane (Amersham Biosciences), blocked in western blocking buffer (Roche), and primary antibodies listed in Table 1, below, were applied in blocking buffer over night at 4° C. After washing 4× for 15 min with TBS-T, secondary antibodies were applied for 1 h in blocking buffer. Membranes were washed again 3× times for 15 min in TBS-T and developed using chemiluminescence (ThermoFisher). After scanning films, densitometry was analyzed using ImageJ software.

WT-1 brown adipocytes = test: 14C-labeled palmitic acid uptake and oxidation; format: cell-based; conditions: mature brown adipocytes
Method: FA uptake and oxidation were determined by measuring both ^14C-labeled palmitic acid uptake and conversion of ^14C-labeled palmitic acid into CO2. WT-1 brown preadipocytes were differentiated according to a standard adipogenic differentiation protocol for 9 days before cells were serum starved for 1 hour. Cells were treated with 1 μM 12,13-diHOME or methyl acetate vehicle in 0.1% w/v BSA in PBS for 15 minutes before the culture medium was removed, and cells were incubated with DMEM/H containing 4% FA-free BSA w/v in PBS, 0.5 mM palmitic acid, and 0.2 μCi/mL [1-^14C]-palmitic acid (PerkinElmer Life and Analytical Science, Waltham, Mass.) for 1 h. The incubation medium was transferred to a vial containing 1M acetic acid, capped quickly, and allowed to incubate for 1 h for CO2 gas to be released. The CO2 released was absorbed by hyamine hydroxide, and activity was counted. FA oxidation was calculated from CO2 generated. To measure fatty acid uptake, cells were rinsed twice with PBS and lysed after incubation with [1-^14C]-palmitic acid. Lipids were extracted using a chloroform-methanol mixture (2:1), and ^14C-counts were determined in the organic phase. Protein concentrations were determined by using the Pierce BCA kit (Life Technologies) according to instructions, and FA uptake (^14C lipids in the cells) and oxidation (^14CO2 generated) were normalized to protein content. […]

lipoprotein lipase (LPL) = test: mRNA expression by qPCR in tissue from 12,13-diHOME treated mice; format: in vivo; conditions: diet-induced obese mice, 2 weeks at 10 μg/kg body weight
Method: For the experiments with daily injections of 12,13-diHOME, mice were fed with a high-fat diet containing 60 kcal % fat (Research Diets Stock no. D12492) for 16 weeks prior to treatment and during the course of the experiment. Mice were first injected intraperitoneally daily with 1 ug/kg body weight, 12,13-diHOME in 0.1% BSA w/v in PBS or vehicle and body for one week, then injected every day with 10 ug/kg body weight two weeks. For all experiments, serum was collected and triglycerides were measured using a standard enzymatic assay (ZenBiosystems). Non-esterified FA were also measured with a colorimetric assay (Wako Chemicals USA). High-density and low-density lipoprotein fractions were isolated and cholesterol was measured with a colorimetric assay (Abcam). All mice were allowed ad libitum access to water and food. Total RNA was extracted from tissue with Trizol and purified using a spin column kit (Zymo Research). RNA (500 ng-1 μg) was reverse transcribed with a high-capacity complementary DNA (cDNA) reverse transcription kit (Applied Biosystems). Real-time PCR was performed in mouse tissues starting with 10 ng of cDNA and forward and reverse oligonucleotide primers (300 nM each) in a final volume of 10 μl with SYBR green PCR Master Mix (Roche). Fluorescence was determined and analyzed in an ABI Prism 7900 sequence detection system (Applied Biosystems). […]

[1] = Cold tolerance assay (body core temperature at 4° C.); format: in vivo; conditions: mice, 1 μg/kg retro-orbitally, cold challenge at 4° C., compared to vehicle and 12,13-epOME
Method: For cold tolerance assay, mice were injected retro-orbitally with 1 μg/kg body weight 12,13-diHOME (purchased from Cayman Chemical Company) in 0.1% w/v BSA in PBS or vehicle, then immediately placed in a cold room maintained at 4° C. and body core temperature was determined by rectal probe measurements. Mice injected retro-orbitally were also used to measure blood pressure and pulse with the tail cuff method (Hatteras Instruments).

[2] = Daily injections of 12,13-diHOME in diet-induced obese mice; format: in vivo
Method: For the experiments with daily injections of 12,13-diHOME, mice were fed with a high-fat diet containing 60 kcal % fat (Research Diets Stock no. D12492) for 16 weeks prior to treatment and during the course of the experiment. Mice were first injected intraperitoneally daily with 1 ug/kg body weight, 12,13-diHOME in 0.1% BSA w/v in PBS or vehicle and body for one week, then injected every day with 10 ug/kg body weight two weeks. For all experiments, serum was collected and triglycerides were measured using a standard enzymatic assay (ZenBiosystems). Non-esterified FA were also measured with a colorimetric assay (Wako Chemicals USA). High-density and low-density lipoprotein fractions were isolated and cholesterol was measured with a colorimetric assay (Abcam). All mice were allowed ad libitum access to water and food.

FATP1 = test: Membrane fractionation and immunoblot, FATP1; format: cell-based; conditions: differentiated WT-1 brown adipocytes, 1 μM for 15 minutes
Method: as §1

BAT = test: In vivo bioluminescent fatty acid uptake (FFA-SS-Luc) in UCP1cre+/− Rosa(stop)Luc+/− mice; conditions: 1 ug/kg, compared to vehicle
Method: For in vivo bioluminescent fatty acid uptake experiments, UCP1cre^+/- mice (Stock no. 024670) were bred with Rosa(stop)Luc^+/+ (Stock no. 005125), both obtained from The Jackson Laboratory. Male offspring carrying the UCP1-cre allele were injected retro-orbitally with 1 ug/kg body weight 12,13-diHOME in 0.1% BSA PBS or vehicle, and all mice were co-injected with 2 μm FFA-SS-Luc ([…] Medical). Mice were anesthetized with isofluorane and imaged using the IVIS Spectrum CT using sequential 30 s exposures for 1 hour. Data was analyzed using Living Image Software and movies were assembled from individual images using ImageJ.

[3] = diet-induced obese mice, daily for 2 weeks at 10 μg/kg body weight
[4] = obese mice, chronic treatment (i.e., one week)

CCCCCC(O)C(O)C/C=C\CCCCCCCC(=O)O (stereo not shown) [12,13-diHOME, 12,13-dihydroxy-9Z-octadecenoic acid]
membrane translocation of the low glycosylation form of CD36 (CD36): robustly induced | radiolabeled FA uptake (WT-1 brown adipocytes; 1 μM for 15 minutes, 14C palmitic acid): markedly increased | FA oxidation (WT-1 brown adipocytes; 1 μM, 14C palmitic acid to CO2): trend to increase | expression of lipoprotein lipase (LPL) in BAT (lipoprotein lipase (LPL)): increased | body temperature during cold challenge [1]: protected mice from the decrease in body temperature; also recorded: protected mice from cold challenge | body weight [2, 3]: no effect | circulating non-esterified FA [2, 3]: no effect | circulating triglyceride levels [2, 3]: significantly decreased | glucose tolerance [2, 3]: no effect | body weight [2, 4]: without alteration | circulating triglyceride [2, 4]: significant reduction | membrane translocation of oligomeric FATP1 (FATP1): robustly induced | luminescent signal in BAT (brown adipocyte FA uptake) (BAT): significantly increased
